# Tests used:
# cAMP in PN cells = test: Cyclic AMP enzyme immunoassay in cells; format: cell-based, mouse
# Experimental: FIG. 4A, FIG. 4B, FIG. 4C, FIG. 4D, and FIG. 4E show (FIG. 4A-FIG. 4B) cAMP levels are reduced by VX-809. (FIG. 4A) cAMP levels in mouse tissue were reduced by VX-809. The kidney samples (n=6) analyzed were taken from those depicted in FIG. 1. (FIG. 4B) Confluent PN and PH cells were treated with VX-809 (10 μM) or DMSO for 16 h and then treated with forskolin (100 μM) for 30 min before the cells were harvested for the assay. Columns represent means±SEM. Statistical analysis was performed using a two-tailed Student's t-test. Each set of data is from three individual wells; Note that resting cAMP is greater in PN vs PH cells as previously shown (25). Also note that forskolin caused a large increase in cAMP. A smaller increase occurred with IBMX. However, the increase induced by forskolin alone was similar to that by IBMX plus forskolin. […] (FIG. 4C, FIG. 4D, and FIG. 4E) Adenylyl cyclase expression. (FIG. 4C) Western blot showing the expression of adenylyl cyclase (AC) 6 and AC3 in treated and control PN cells. (FIG. 4D-FIG. 4E) Columns represent means±SEM of the AC3 and AC6 expression. The data were analyzed by non-parametric t-test. The experiment was repeated four times. For all graphs, *P<0.05, **P<0.01, and ***P<0.001;
# It has been shown previously in both animal and cell culture models of ADPKD that cells lacking functional PC1 have elevated cAMP levels when compared to normal (24). To assess the effect of CFTR correctors, cAMP activity was measured in PC1 conditional knockout mouse kidneys and in PN cells that were either left untreated or treated with VX-809. […] Cells were treated with forskolin, which increased cAMP levels drastically (FIG. 4B). […] Treating PN cells with forskolin or IBMX (FIG. 4B) increased the cAMP activity by ˜10-fold.
# Confluent cells were treated with VX-809 (10 μM) or DMSO for 16 h before being harvested for assay. Cyclic AMP levels were measured with a direct cAMP Enzyme Immunoassay Kit (Sigma, # CA200) according to the manufacturer's protocol. The results are expressed as pmole/ml. Statistical analysis was performed using a two-tailed Student's t-test.
# Hsp70 = test: Western blot of Hsp70 in kidney tissue lysates; format: in vivo, mouse; conditions: cyst induced pkd−/− mice, VX-809 30 mg/kg BW
# Experimental: FIG. 7A, FIG. 7B, FIG. 7C, FIG. 7D, FIG. 7E, and FIG. 7F show chaperone expression is altered in mice by VX-809. (FIG. 7A-FIG. 7B) Representative Western blot images of HSP27, 70, 90 and HSP40 in lysates of kidney tissue from no cyst induced (ND), cyst induced with Doxycycline (D) or cyst induced pkd−/− mice treated with VX-809 (D+VX-809) 30 mg/kg BW. (FIG. 7C, FIG. 7D, FIG. 7E, and FIG. 7F) Columns represent averages±standard errors of HSP27, 70, 90 and HSP40 expression. Data were analyzed by non-parametric t-test. n=4 for each treated and control groups. Black lines between lanes represent representative experiments from the same gel. *P<0.05; **P<0.01; To facilitate their growth in the kidney, cysts have developed an altered network of proteins that most likely serves to protect them from stress (34). Next, it was determined whether VX-809 would alter the levels of Hsps in pkd−/− mice and in PN cells. […] Hsp 27, 70 and 90 are all elevated in cystic kidneys compared to normal controls. […] There is no change in Hsp 40. […] Both sets of data are consistent with an alteration in the heat shock response to cyst growth.
# GADD153 = test: Immunostaining for GADD153 in mouse kidney sections; format: in vivo; conditions: PN21 mice, VX-809 vs DMSO
# Text: FIG. 12A, FIG. 12B, and FIG. 12C show GADD153 expression in kidneys of Pkd1^fl/fl; Pax8^rtTA; TetO-cre mice. Immunoflourescence images representing the GADD expression (green) in DMSO (FIG. 12A) or VX-809 (FIG. 12B) treated PN21 Pkd1^fl/fl in mouse. Columns (FIG. 12C) represent % area of GADD immunopositive (green) cells in DMSO or VX-809 treated PN21 Pkd1^fl/fl in mouse kidney sections. Data are expressed as mean 1+1 SEM of DMSO (vehicle)-treated (n=4) and VX-809-treated (n=4) mice. Statistical analysis was performed using a 2-tailed Student t-test. DMSO, dimethyl sulfoxide. Kidneys were fixed in 4% paraformaldehyde as described (62). Used here was the GADD153 antibody (Sc-7351), goat antirabbit (A21429, AlexaFluor 555, 1:1,000; Life Technologies, Carlsbad, Calif.) and DAPI (H-1200; Vector Laboratories, Burlingame, Calif.). […] Cells positive for GADD153 and the total number of cells were measured with ImageJ. The results are expressed as percentages;
# Given that VX-809 alters an ensemble of Hsps, it was evaluated whether VX-809 alters proteins associated with ER stress. To address this question, the levels of three ER stress-associated proteins were measured, 78-kDa glucose-regulated protein (GRP78), ER oxidoreductin 1 (Ero1) and DNA damage-inducible protein 3 (GADD153), also known as C/EBP homologous protein (CHOP) (37). […]
# CFTR = CFTR (Mus musculus, UniProt P26361); test: Biotinylation of CFTR in PN cells; format: cell-based; set-up: endogenous in cells; host or cells: PN (Pkd1-null mouse proximal tubule) cells; conditions: VX-809 treatment vs control PN cells
# Experimental: FIG. 19A, FIG. 19B, FIG. 19C, and FIG. 19D show CFTR expression in PN cells treated with VX-809 (10 μM) for 16 h.
# The expression of CFTR was evaluated in PN cells treated with VX-809 and control PN cells. PN cells were treated with 10 μM VX-809 for 16 h or a control.
# CFTR, sequence (P26361 whole entry): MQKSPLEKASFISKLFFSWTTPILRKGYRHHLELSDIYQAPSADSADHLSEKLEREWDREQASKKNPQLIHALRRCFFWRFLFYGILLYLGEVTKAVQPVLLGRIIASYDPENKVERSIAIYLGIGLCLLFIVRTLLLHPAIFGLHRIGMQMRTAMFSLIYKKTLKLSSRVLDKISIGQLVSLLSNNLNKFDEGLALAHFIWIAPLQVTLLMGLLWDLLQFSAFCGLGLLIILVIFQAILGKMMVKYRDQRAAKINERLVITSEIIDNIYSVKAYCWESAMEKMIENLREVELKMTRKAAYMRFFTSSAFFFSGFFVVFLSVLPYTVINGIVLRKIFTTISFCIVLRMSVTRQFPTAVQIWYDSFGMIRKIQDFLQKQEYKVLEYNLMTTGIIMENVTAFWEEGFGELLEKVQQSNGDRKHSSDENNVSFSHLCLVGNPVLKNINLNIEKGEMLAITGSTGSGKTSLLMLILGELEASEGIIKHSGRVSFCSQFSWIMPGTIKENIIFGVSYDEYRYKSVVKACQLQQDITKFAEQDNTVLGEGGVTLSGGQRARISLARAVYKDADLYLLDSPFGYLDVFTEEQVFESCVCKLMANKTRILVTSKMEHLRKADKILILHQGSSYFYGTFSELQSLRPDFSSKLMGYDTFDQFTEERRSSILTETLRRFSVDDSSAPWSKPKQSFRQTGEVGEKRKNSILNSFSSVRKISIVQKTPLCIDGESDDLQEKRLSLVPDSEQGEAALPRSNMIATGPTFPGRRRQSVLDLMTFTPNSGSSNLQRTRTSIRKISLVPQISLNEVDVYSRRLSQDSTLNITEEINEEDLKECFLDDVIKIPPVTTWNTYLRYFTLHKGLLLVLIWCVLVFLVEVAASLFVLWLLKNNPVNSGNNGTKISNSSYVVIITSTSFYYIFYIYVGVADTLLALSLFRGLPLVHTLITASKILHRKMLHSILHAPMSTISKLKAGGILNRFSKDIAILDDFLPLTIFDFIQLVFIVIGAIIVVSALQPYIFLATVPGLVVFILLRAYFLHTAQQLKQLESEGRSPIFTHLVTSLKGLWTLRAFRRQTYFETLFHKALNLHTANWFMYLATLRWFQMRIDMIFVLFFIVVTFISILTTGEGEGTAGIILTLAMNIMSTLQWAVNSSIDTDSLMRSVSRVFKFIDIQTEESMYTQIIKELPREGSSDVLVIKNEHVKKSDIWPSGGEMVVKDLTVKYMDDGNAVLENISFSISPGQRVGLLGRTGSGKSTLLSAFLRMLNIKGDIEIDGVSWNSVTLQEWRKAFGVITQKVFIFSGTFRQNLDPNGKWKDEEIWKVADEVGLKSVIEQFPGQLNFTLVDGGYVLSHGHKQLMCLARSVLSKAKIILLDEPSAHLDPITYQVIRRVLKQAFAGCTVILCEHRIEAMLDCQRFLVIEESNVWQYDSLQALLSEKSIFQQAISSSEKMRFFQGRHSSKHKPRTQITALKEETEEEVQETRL
substance,measurement,setting,value
lumacaftor [VX-809],forskolin-induced increase in cAMP,"cAMP in PN cells; VX-809 10 μM 16 h, then forskolin 100 μM 30 min",reduced the forskolin-induced increase in cAMP
same,resting cAMP levels in PN cells,"cAMP in PN cells; VX-809 10 μM, 16 h vs untreated PN cells",significantly decreased the cAMP levels
same,forskolin- or IBMX-induced increases in adenylyl cyclase activity,"cAMP in PN cells; forskolin in combination with IBMX, data bars 5 and 9 FIG. 4B",did not affect the forskolin- or IBMX-induced increases in adenylyl cyclase activity
same,Hsp70 expression in kidneys,Hsp70,significantly less expression
same,GADD153 immunostaining in kidneys,GADD153,strong reduction
same,biotinylation of CFTR,CFTR,significantly increased

# Source: patent publication US20200289482A1, “CYSTIC FIBROSIS TRANSMEMBRANE CONDUCTANCE REGULATOR MODULATORS FOR TREATING AUTOSOMAL DOMINANT POLYCYSTIC KIDNEY DISEASE” (The Johns Hopkins University, priority 2017, published 2020)
